Test results: patent publication EP2905024A1 (Institut Quimic De Sarriá Cets, Fundació Privada, priority 2014, dated 2015)

Key:
cytotoxicity assay (MTT) = type: cell-based; conditions: human, Lunet/HuH7 cells, 2 days of incubation, mean of duplicates; for CC50 at 48 h: huh-7/lunet cells; for CC50 at 2 days: Huh-7/Lunet cells (cured HCV replicon cells)
Description: (§1) To analyze the antiviral activity of the compounds, we used a stable cell line, LucUbiNeo-ET, that contains a subgenomic HCV genotype 1b replicon, I389/NS3-3'/ LucUbiNeo-ET, that express luciferase constitutively (Krieger et al, JVI 2001; 75:4614; Frese et al., JGV 2003; 84: 1253-1259). To evaluate the cellular toxicity, we use other cell line, Huh-7/Lunet (Friebe et al., JVI 2005; 79: 380-392), that originally carried a selectable luciferase HCV 1b replicon and was cured by treatment with an HCV-specific inhibitor. These cells are characterized by high permissiveness for HCV RNA replication. LucUbiNeo-ET cell line was cultured at 37°C in a humidified atmosphere with 5% CO2 in Dulbecco's modified Eagle medium (D-MEM) supplemented with high glucose concentration (4.5g/l) (Invitrogen), 10% (vol/vol) heat-inactivated fetal bovine serum (Hyclone, Cultek), 2mM L-Glutamine (Sigma-aldrich), 1mM sodium pyruvate (Sigma-aldrich), 1% MEM NEEA (Sigma-aldrich), and 0.5 mg/ml of Geneticin (G418) (Gibco, Invitrogen). Cured or Huh-7/Lunet cell line was maintained at the same conditions as described above without the addition of Geneticin.
(§2) Antiviral activity was carried out in white-clear bottom 96-well plates, and cytotoxicity assays were performed in clear 96-well plates. Cells were seeded at a density of 10^4/well in 100ul D-MEM without selection of antibiotics. After 24h, nine fivefold serial dilution of compounds, with 3 replicates at each dilution, were prepared in D-MEM and added to the appropriate wells, yielding concentrations of 125 to 0,00032 ug/ml in a final volume of 100 ul of D-MEM. Following 2 days of incubation, we determined the antiviral activity (EC50) by quantifying the luciferase with the Luciferase Bright Glo assay (Promega). Briefly, LucUbiNeo-ET cells were harvested with the addition of 100 ul of luciferase per well, and after 2 minutes of shaking, the light was read in a Luminometer Fluoroskan Ascent FL. Toxicity (CC50) was analysed in the Lunet/HuH7 cells by the addition of 10 ul of MTT (3-(4,5-dimethylthiazol-2-yl)-2,5-diphenyltetrazolium bromide) per well. After 4h of incubation at 37°C in a humidified atmosphere with 5% CO2, the amount of formazan produced was quantified spectrophotometrically at 550/620 nm [C. Pannecouque et al, Nature protocol 2008; 3 (3): 427-434]. The EC50 and CC50 values were calculated for each compound. These assays were done in duplicate and the results shown in Table 1 represent the mean value of these duplicates.

[1] = system: subgenomic HCV genotype 1b replicon, I389/NS3-3'/ LucUbiNeo-ET; test: in vitro antiviral activity: luciferase assay in LucUbiNeo-ET HCV replicon cells; type: cell-based; conditions: Hepatitis C virus, 48 h, 2 days of incubation, luciferase readout, mean of duplicates
Description: as §1, §2

Row | Structure (SMILES) | CC50 at 48 h (cytotoxicity assay (MTT)) [µM] | EC50 [1] [µM] | CC50 at 2 days (cytotoxicity assay (MTT)) [µM]
1 | Cn1c(=O)c(-c2ccc(F)cc2)cc2c(N3CCCC3)nc(N)nc21 [Example 43] | ≥ 25 | 5 to 22 | 
2 | CCCOCCNc1nc(Nc2ccccc2)nc2c1cc(-c1c(Cl)cccc1Cl)c(=O)n2C [Example 46, 6-(2,6-dichlorophenyl)-8-methyl-2-(phenylamino)-4-((2-propoxyethyl)amino)pyrido[2,3-d]pyrimidine-7(8H)-one] |  | 5 to 22 | ≥ 25
3 | COCCOc1nc(N)nc2c1CC(c1c(Cl)cccc1Cl)C(=O)N2 (stereo not shown) [Example 13, 2-amino-6-(2,6-dichlorophenyl)-4-(2-methoxyethoxy)-5,6-dihydropyrido[2,3-d]pyrimidine-7(8H)-one] |  | 5 to 22 | ≥ 25
4 | CCCCCNc1nc(N)nc2c1cc(-c1ccc(F)cc1)c(=O)n2C [Example 42, 2-amino-6-(4-fluorophenyl)-8-methyl-4-(pentylamino) pyrido[2,3-d]pyrimidine-7(8H)-one] |  | 5 to 22 | 10 to 25
5 | Nc1nc(Nc2ccccc2)nc2[nH]c(=O)c(-c3ccccc3)cc12 [Example 37, 4-amino-6-phenyl-2-(phenylamino)pyrido[2,3-d]pyrimidine-7(8H)-one] |  | < 1 | 10 to 25
6 | Nc1nc(Nc2ccccc2)nc2[nH]c(=O)c(-c3c(Br)cccc3Br)cc12 [Example 36, 4-amino-6-(2,6-dibromophenyl)-2-(phenylamino)pyrido[2,3-d]pyrimidine-7(8H)-one] |  | 5 to 22 | ≥ 25
7 | O=C1Nc2nc(Nc3ccccc3)nc(On3nnc4ccccc43)c2CC1c1ccc(Cl)cc1Cl (stereo not shown) [Example 6, 4-((1H-benzo[d][1,2,3]triazol-1-yl)oxy)-6-(2,4-dichlorophenyl)-2-(phenylamino)-5,6-dihydropyrido[2,3-d]pyrimidine-7(8H)-one] |  | 1 to 5 | < 10
8 | Cn1c(=O)c(-c2c(Cl)cccc2Cl)cc2c(N)nc(Nc3ccccc3)nc21 [Example 48, 4-amino-6-(2,6-dichlorophenyl)-8-methyl-2-(phenylamino)pyrido[2,3-d]pyrimidine-7(8H)-one] |  | < 1 | < 10
9 | CCCOCCNc1nc(Nc2ccccc2)nc2c1CC(c1c(Cl)cccc1Cl)C(=O)N2 (stereo not shown) [Example 11, 6-(2,6-dichlorophenyl)-2-(phenylamino)-4-((2-propoxyethyl)amino)-5,6-dihydropyrido[2,3-d]pyrimidine-7(8H)-one] |  | 5 to 22 | ≥ 25
10 | Cn1c(=O)c(-c2c(Cl)cccc2Cl)cc2cnc(Nc3ccccc3)nc21 [Example 53, 6-(2,6-dichlorophenyl)-8-methyl-2-(phenylamino)pyrido[2,3-d]pyrimidine-7(8H)-one] |  | < 1 | < 10
11 | Cn1c(=O)c(-c2c(F)cccc2C(F)(F)F)cc2c(N)nc(Nc3ccccc3)nc21 [Example 51, 4-amino-6-(2-fluoro-6-(trifluoromethyl)phenyl)-8-methyl-2-(phenylamino) pyrido[2,3-d]pyrimidine-7(8H)-one] |  | 1 to 5 | < 10
12 | O=C1Nc2nc(NCc3ccccc3)[nH]c(=O)c2CC1c1c(Cl)cccc1Cl (stereo not shown) [Example 22, 2-(benzylamino)-6-(2,6-dichlorophenyl)-5,6-dihydropyrido [2,3-d]pyrimidine-4,7(3H,8H)-dione] |  | 5 to 22 | ≥ 25
13 | Nc1nc(Nc2ccccc2)nc2[nH]c(=O)c(-c3c(F)cccc3F)cc12 [Example 34, 4-amino-6-(2,6-difluorophenyl)-2-(phenylamino)pyrido[2,3-d]pyrimidine-7(8H)-one] |  | 5 to 22 | < 10
14 | CCn1c(=O)c(-c2c(Cl)cccc2Cl)cc2c(N)nc(Nc3ccccc3)nc21 [Example 54, 4-amino-6-(2,6-dichlorophenyl)-8-ethyl-2-(phenylamino)pyrido[2,3-d] pyrimidine-7(8H)-one] |  | 1 to 5 | ≥ 25
15 | Cn1c(=O)c(-c2c(Cl)cccc2Cl)cc2c(N)nc(Nc3ccc(Br)cc3)nc21 [Example 60, 4-amino-2-((4-bromophenyl)amino)-6-(2,6-dichlorophenyl)-8-methylpyrido[2,3-d]pyrimidine-7(8H)-one] |  | < 1 | < 10
16 | COc1nc(N)nc2c1CC(c1c(Cl)cccc1Cl)C(=O)N2C (stereo not shown) [Example 45, 2-amino-6-(2,6-dichlorophenyl)-4-methoxy-8-methyl-5,6-dihydropyrido[2,3-d]pyrimidine-7(8H)-one] |  | 5 to 22 | ≥ 25
17 | CCCOCCNc1nc(Oc2ccccc2)nc2[nH]c(=O)c(-c3ccc(F)cc3)cc12 [Example 32, 6-(4-fluorophenyl)-2-phenoxy-4-((2-propoxyethyl)amino) pyrido[2,3-d]pyrimidine-7(8H)-one] |  | 1 to 5 | ≥ 25
18 | O=C1Nc2nc(Nc3ccccc3)[nH]c(=O)c2CC1c1cccc2ccccc12 (stereo not shown) [Example 20, 6-(naphthalen-1-yl)-2-(phenylamino)-5,6-dihydropyrido[2,3-d]pyrimidine-4,7(3H,8H)-dione] |  | 5 to 22 | 10 to 25
19 | CCCCn1c(=O)c(-c2c(Cl)cccc2Cl)cc2c(N)nc(Nc3ccccc3)nc21 [Example 56, 4-amino-8-butyl-6-(2,6-dichlorophenyl)-2-(phenylamino)pyrido[2,3-d] pyrimidine-7(8H)-one] |  | 5 to 22 | ≥ 25
20 | CCCOCCOc1nc(N)nc2c1cc(-c1c(Cl)cccc1Cl)c(=O)n2C [Example 44, 2-amino-6-(2,6-dichlorophenyl)-8-methyl-4-(2-propoxyethoxy)pyrido[2,3-d]pyrimidine-7(8H)-one] |  | 5 to 22 | ≥ 25
21 | CCCn1c(=O)c(-c2c(Cl)cccc2Cl)cc2c(N)nc(Nc3ccccc3)nc21 [Example 55, 4-amino-6-(2,6-dichlorophenyl)-2-(phenylamino)-8-propylpyrido[2,3-d] pyrimidine-7(8H)-one] |  | 1 to 5 | ≥ 25
22 | O=c1[nH]c2nc(Nc3ccccc3)[nH]c(=O)c2cc1-c1ccc(F)cc1 [Example 29, 6-(4-fluorophenyl)-2-(phenylamino)pyrido[2,3-d]pyrimidine-4,7(3H,8H)-dione] |  | < 1 | 10 to 25
23 | Cn1c(=O)c(-c2c(Br)cccc2Br)cc2c(N)nc(Nc3ccccc3)nc21 [Example 49, 4-amino-6-(2,6-bromophenyl)-8-methyl-2-(phenylamino)pyrido[2,3-d]pyrimidine-7(8H)-one] |  | < 1 | < 10
24 | Cn1c(=O)c(-c2c(F)cccc2F)cc2c(N)nc(Nc3ccccc3)nc21 [Example 47, 4-amino-6-(2,6-difluorophenyl)-8-methyl-2-(phenylamino)pyrido[2,3-d]pyrimidine-7(8H)-one] |  | < 1 | 10 to 25
25 | O=C1Nc2nc(Nc3ccccc3)[nH]c(=O)c2CC1c1ccccc1 (stereo not shown) [Example 18, 6-phenyl-2-(phenylamino)-5,6-dihydropyrido[2,3-d]pyrimidine-4,7(3H,8H)-dione] |  | 1 to 5 | ≥ 25
26 | Cn1c(=O)c(-c2ccccc2)cc2c(N)nc(Nc3ccccc3)nc21 [Example 50, 4-amino-8-methyl-6-phenyl-2-(phenylamino)pyrido[2,3-d]pyrimidine-7(8H)-one] |  | < 1 | 10 to 25
27 | COCCn1c(=O)c(-c2c(Cl)cccc2Cl)cc2c(N)nc(Nc3ccccc3)nc21 [Example 58, 4-amino-6-(2,6-dichlorophenyl)-8-(2-methoxyethyl)-2-(phenylamino) pyrido[2,3-d]pyrimidine-7(8H)-one] |  | < 1 | ≥ 25
28 | CC(C)Cn1c(=O)c(-c2c(Cl)cccc2Cl)cc2c(N)nc(Nc3ccccc3)nc21 [Example 57, 4-amino-6-(2,6-dichlorophenyl)-8-isobutyl-2-(phenylamino)pyrido[2,3-d] pyrimidine-7(8H)-one] |  | < 1 | ≥ 25
29 | O=C1Nc2nc(Oc3ccccc3)nc(On3nnc4ccccc43)c2CC1c1ccc(F)cc1 (stereo not shown) [Example 3, 4-((1H-benzo[d][1,2,3]triazol-1-yl)oxy)-6-(4-fluorophenyl)-2-phenoxy-3,4,5,6-tetrahydropyrido[2,3-d]pyrimidine-7(8H)-one] | ≥ 25 | 5 to 22 | 
